Legend:
TrkB = target: T1, TrkB (Homo sapiens, UniProt Q16620); assay: Trk B Fluorescence Polarization Kinase Assay; format: biochemical; settings: uncertainty ±10%
T1 construct: purchased Upstate 14-507M
Procedure, shortened: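 The TrkB kinase reaction (50 nM enzyme, 20 ug/mL poly Glu4Tyr, 150 uM ATP, 5 mM MgCl2, 1% DMSO) ran 30 minutes at room temperature and was stopped with EDTA. Phosphorylation was detected by fluorescence-polarization displacement of a fluorescein phosphopeptide from an anti-phosphotyrosine antibody. IC50 came from a variable-slope sigmoidal fit of triplicates.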

[1] = target: T2, FLT ligand-induced wild-type FLT3 phosphorylation (Homo sapiens, UniProt P36888); assay: Cell-Based FLT3 Receptor Elisa (Baf3 FLT3 cells); settings: uncertainty ±20%
T2 construct: host or cells: Baf3 (murine B cell lymphoma line)
T2 sequence (P36888 27-993): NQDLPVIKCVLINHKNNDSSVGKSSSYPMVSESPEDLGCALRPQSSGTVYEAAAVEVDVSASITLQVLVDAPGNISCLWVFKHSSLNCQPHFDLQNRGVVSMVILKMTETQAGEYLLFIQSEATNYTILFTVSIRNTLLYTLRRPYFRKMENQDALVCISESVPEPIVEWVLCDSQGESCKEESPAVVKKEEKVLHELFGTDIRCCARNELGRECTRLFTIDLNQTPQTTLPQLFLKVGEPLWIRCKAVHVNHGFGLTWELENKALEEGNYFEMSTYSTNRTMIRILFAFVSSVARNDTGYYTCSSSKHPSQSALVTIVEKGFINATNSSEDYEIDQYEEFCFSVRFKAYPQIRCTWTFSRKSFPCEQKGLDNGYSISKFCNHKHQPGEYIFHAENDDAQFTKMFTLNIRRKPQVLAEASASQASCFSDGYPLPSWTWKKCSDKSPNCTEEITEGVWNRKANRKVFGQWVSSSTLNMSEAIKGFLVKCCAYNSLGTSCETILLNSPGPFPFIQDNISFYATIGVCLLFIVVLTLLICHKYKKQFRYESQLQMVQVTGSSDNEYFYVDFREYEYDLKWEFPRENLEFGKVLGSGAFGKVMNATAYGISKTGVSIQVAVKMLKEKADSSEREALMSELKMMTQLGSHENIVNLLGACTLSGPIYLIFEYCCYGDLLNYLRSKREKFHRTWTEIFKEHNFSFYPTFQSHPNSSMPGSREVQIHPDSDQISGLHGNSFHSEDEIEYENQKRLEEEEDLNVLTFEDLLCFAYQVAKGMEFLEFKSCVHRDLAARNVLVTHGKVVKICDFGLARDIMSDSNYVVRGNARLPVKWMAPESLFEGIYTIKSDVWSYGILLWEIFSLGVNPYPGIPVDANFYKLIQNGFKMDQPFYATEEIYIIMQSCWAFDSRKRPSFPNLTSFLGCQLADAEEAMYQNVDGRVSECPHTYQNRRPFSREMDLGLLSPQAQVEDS
Method: Cell-Based FLT3 Receptor Elisa
Specific cellular inhibition of FLT ligand-induced wild-type FLT3 phosphorylation was measured in the following manner: Baf3 FLT3 cells overexpressing the FLT3 receptor were obtained from Dr. Michael Heinrich (Oregon Health and Sciences University). The Baf3 FLT3 cell lines were created by stable transfection of parental Baf3 cells (a murine B cell lymphoma line dependent on the cytokine IL-3 for growth) with wild-type FLT3. Cells were selected for their ability to grow in the absence of IL-3 and in the presence of FLT3 ligand.
Baf3 cells were maintained in RPMI 1640 with 10% FBS, penn/strep and 10 ng/ml FLT ligand at 37° C., 5% CO2. To measure direct inhibition of the wild-type FLT3 receptor activity and phosphorylation a sandwich ELISA method was developed similar to those developed for other RTKs (3,4). 200 μL of Baf3FLT3 cells (1×10^6/mL) were plated in 96 well dishes in RPMI 1640 with 0.5% serum and 0.01 ng/mL IL-3 for 16 hours prior to 1 hour compound or DMSO vehicle incubation. Cells were treated with 100 ng/mL Flt ligand (R&D Systems Cat# 308-FK) for 10 min. at 37° C. Cells were pelleted, washed and lysed in 100 ul lysis buffer (50 mM Hepes, 150 mM NaCl, 10% Glycerol, 1% Triton-X-100, 10 mM NaF, 1 mM EDTA, 1.5 mM MgCl2, 10 mM NaPyrophosphate) supplemented with phosphatase (Sigma Cat# P2850) and protease inhibitors (Sigma Cat #P8340). […]

[2] = Tolerability in the MV4-11 xenograft study (body weight, overt clinical signs); format: in vivo, nude mice; settings: 11-day treatment, doses up to 200 mg/kg/day
Method: (§1) Female athymic nude mice weighing no less than 20-21 grams were inoculated subcutaneously in the left inguinal region of the thigh with 5×10^6 tumor cells in a delivery volume of 0.2 mL. For regression studies, the tumors were allowed to grow to a pre-determined size prior to initiation of dosing.

MV4-11 tumor xenografts = assay: nude mouse MV4-11 human tumor xenograft regression model; format: in vivo, nude mice; settings: for decrease of mean tumor volume compared to vehicle-treated group: Day 11; for reduction of final tumor weight compared to vehicle-treated group: eleven days oral dosing
Method: Female athymic nude mice (CD-1, nu/nu, 9-10 weeks old) were obtained from Charles River Laboratories (Wilmington, Mass.) and were maintained according to NIH standards. All mice were group housed (5 mice/cage) under clean-room conditions in sterile micro-isolator cages on a 12-hour light/dark cycle in a room maintained at 21-22° C. and 40-50% humidity. Mice were fed irradiated standard rodent diet and water ad libitum. All animals were housed in a Laboratory Animal Medicine facility that is fully accredited by the American Association for Assessment and Accreditation of Laboratory Animal Care (AAALAC). All procedures involving animals were conducted in compliance with the NIH Guide for the Care and Use of Laboratory Animals and all protocols were approved by an Internal Animal Care and Use Committee (IACUC).
The human leukemic MV4-11 cell line was obtained from the American Type Culture Collection (ATCC Number: CRL-9591) and propagated in RPMI medium containing 10% FBS (fetal bovine serum) and 5 ng/mL GM-CSF (R&D Systems). MV4-11 cells are derived from a patient with childhood acute myelomonocytic leukemia with an 11q23 translocation resulting in a MLL gene rearrangement and containing an FLT3-ITD mutation (AML subtype M4)(1,2). MV4-11 cells express constitutively active phosphorylated FLT3 receptor as a result of a naturally occurring FLT3/ITD mutation. Strong anti-tumor activity against MV4-11 tumor growth in the nude mouse tumor xenograft model is anticipated to be a desirable quality of the invention.
as §1
(See FIG. 2). […] Percent Inhibition was calculated versus the mean tumor weight in the vehicle-treated control group.

[3] = target: T3, isolated kinase domain of the human c-kit receptor (Homo sapiens, UniProt P10721); assay: c-Kit Fluorescence Polarization Kinase Assay; format: biochemical; settings: uncertainty ±10%; read-out: ckit IC50
T3 construct: isolated kinase domain of the human c-kit receptor; purchased ProQinase lot SP005
T3 sequence (P10721 589-937 limits assumed): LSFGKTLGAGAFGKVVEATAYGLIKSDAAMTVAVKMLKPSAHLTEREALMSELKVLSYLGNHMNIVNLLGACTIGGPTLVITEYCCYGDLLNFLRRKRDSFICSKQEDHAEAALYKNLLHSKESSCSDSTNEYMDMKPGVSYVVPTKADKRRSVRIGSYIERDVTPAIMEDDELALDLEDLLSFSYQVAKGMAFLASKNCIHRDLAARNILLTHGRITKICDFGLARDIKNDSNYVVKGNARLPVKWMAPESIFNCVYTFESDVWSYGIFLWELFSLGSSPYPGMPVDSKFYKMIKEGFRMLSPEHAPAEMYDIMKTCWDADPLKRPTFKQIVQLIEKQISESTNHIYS
Method: c-Kit Fluorescence Polarization Kinase Assay
The compounds of the present invention are also specific inhibitors of c-Kit. Selection of preferred compounds of Formula I for use as c-Kit inhibitors was performed in the following manner using an in vitro kinase assay to measure inhibition of the isolated kinase domain of the human c-kit receptor in a fluorescence polarization (FP) protocol. The c-kit assay utilized the fluorescein-labeled phosphopeptide and the anti-phosphotyrosine antibody included in the Panvera Phospho-Tyrosine Kinase Kit (Green) supplied by Invitrogen. When c-kit phosphorylated the poly Glu4Tyr, the fluorescein-labeled phosphopeptide was displaced from the anti-phosphotyrosine antibody by the phosphorylated poly Glu4Tyr, thus decreasing the FP value. The c-kit kinase reaction was incubated at room temperature for 45 minutes under the following conditions: 1 nM c-kit (ProQinase, lot SP005), 100 ug/mL poly Glu4Tyr, 50 uM ATP, 5 mM MgCl2, 1 mM DTT, 0.01% Tween-20, 1% DMSO or compound in […], pH 7.5. The kinase reaction was stopped with the addition of EDTA. The fluorescein-labeled phosphopeptide and the anti-phosphotyrosine antibody were added and incubated for 30 minutes at room temperature and fluorescence polarization was read. Data points were an average of triplicate samples. Inhibition and IC50 data analysis were done with GraphPad Prism using a non-linear regression fit with a multiparamater, sigmoidal dose-response (variable slope) equation.

FLT3 = FLT3 phosphorylation in MV4-11 tumors from treated mice (immunoblot); format: in vivo, nude mice; settings: single dose 100 mg/kg po, tumors harvested 2 hours later
Method: To establish further that compounds of the present invention reached the expected target in tumor tissue, the level of FLT3 phosphorylation in tumor tissue obtained from vehicle- and compound-treated mice was measured. Results for Compound 73 and Compound 74 are shown in FIG. 3 and FIG. 4, respectively. For this pharmacodynamic study, a sub-set of 10 mice from the vehicle-treated control group were randomized into two groups of 5 mice each and then treated with another dose of vehicle or compound (100 mg/kg, po). Tumors were harvested 2 hours later and snap frozen for assessment of FLT3 phosphorylation by immunobloting.
Harvested tumors were processed for immunoblot analysis of FLT3 phosphorylation in the following manner: 100 mg of tumor tissue was dounce homogenized in lysis buffer (50 mM Hepes, 150 mM NaCl, 10% Glycerol, 1% Triton-X-100, 10 mM NaF, 1 mM EDTA, 1.5 mM MgCl2, 10 mM NaPyrophosphate) supplemented with phosphatase (Sigma Cat#P2850) and protease inhibitors (Sigma Cat #P8340). Insoluble debris was removed by centrifugation at 1000×g for 5 minutes at 4° C. Cleared lysates ([…] of total potein at 10 mg/ml in lysis buffer) were incubated with 10 μg of agarose conjugated anti-FLT3 antibody, clone C-20 (Santa Cruz cat # sc-479ac), for 2 hours at 4° C. with gentle agitation. […]

T1 sequence (Q16620 32-822): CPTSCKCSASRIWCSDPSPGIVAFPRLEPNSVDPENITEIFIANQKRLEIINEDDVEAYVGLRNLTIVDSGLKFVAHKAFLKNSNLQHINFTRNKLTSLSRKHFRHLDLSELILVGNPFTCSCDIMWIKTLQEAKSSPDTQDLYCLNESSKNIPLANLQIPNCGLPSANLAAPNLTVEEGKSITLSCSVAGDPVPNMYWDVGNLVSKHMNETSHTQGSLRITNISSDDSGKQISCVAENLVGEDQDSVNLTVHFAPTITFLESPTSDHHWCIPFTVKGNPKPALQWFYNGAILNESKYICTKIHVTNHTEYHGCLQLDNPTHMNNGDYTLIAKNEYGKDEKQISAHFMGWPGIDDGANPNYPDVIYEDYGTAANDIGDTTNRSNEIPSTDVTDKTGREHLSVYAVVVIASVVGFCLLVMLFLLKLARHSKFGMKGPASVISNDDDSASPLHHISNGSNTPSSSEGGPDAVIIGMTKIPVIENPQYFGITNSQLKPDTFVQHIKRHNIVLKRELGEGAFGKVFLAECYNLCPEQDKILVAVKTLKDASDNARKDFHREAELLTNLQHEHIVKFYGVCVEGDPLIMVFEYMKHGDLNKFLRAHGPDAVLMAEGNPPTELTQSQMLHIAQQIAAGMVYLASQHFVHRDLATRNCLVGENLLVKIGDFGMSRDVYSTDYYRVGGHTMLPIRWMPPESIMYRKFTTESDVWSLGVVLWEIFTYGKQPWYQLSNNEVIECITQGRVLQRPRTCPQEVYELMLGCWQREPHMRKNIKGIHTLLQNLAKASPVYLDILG

IC50 [1] | SMILES | IC50 (TrkB) | adverse effects on body weight [2] | overt toxicity [2] | final tumors in some mice (MV4-11 tumor xenografts; high dose) | IC50 [3] | level of FLT3 phosphorylation in MV4-11 tumors compared to vehicle-treated mice (FLT3) | decrease of mean tumor volume compared to vehicle-treated group (MV4-11 tumor xenografts; 10 mg/kg b.i.d. oral) | reduction of final tumor weight compared to vehicle-treated group (MV4-11 tumor xenografts; 10 mg/kg) | decrease of mean tumor volume compared to vehicle-treated group (MV4-11 tumor xenografts; 30 mg/kg b.i.d. oral) | reduction of final tumor weight compared to vehicle-treated group (MV4-11 tumor xenografts; 30 mg/kg) | tumor regression: decrease versus starting mean tumor volume on Day 1 (MV4-11 tumor xenografts; 100 mg/kg b.i.d. oral) | decrease of mean tumor volume compared to vehicle-treated group (MV4-11 tumor xenografts; 100 mg/kg b.i.d. oral) | reduction of final tumor weight compared to vehicle-treated group (MV4-11 tumor xenografts; 100 mg/kg)
> 3 µM | COc1cc2ncnc(C3CCN(C(=O)Nc4ccc(N5CCN(C)CC5)cc4)CC3)c2cc1OC [Compound 20, 4-(6,7-Dimethoxy-quinazolin-4-yl)-piperidine-1-carboxylic acid [4-(4-methyl-piperazin-1-yl-phenyl)]-amide] | 39.9 µM |  |  |  |  |  |  |  |  |  |  |  | 
1 µM | COc1cc2ncnc(C3CCN(C(=O)Nc4ccc(C(C)O)cc4)CC3)c2cc1OC (stereo not shown) [Compound 55, 4-(6,7-Dimethoxy-quinazolin-4-yl)-piperidine-1-carboxylic acid [4-(1-hydroxy-ethyl)-phenyl]-amide] | 39.1 µM |  |  |  |  |  |  |  |  |  |  |  | 
 | CN1CCN(CCCOc2ccc3c(C4CCN(C(=O)Nc5ccc(N6CCOCC6)cc5)CC4)ncnc3c2)CC1 [Compound 73, 4-{7-[3-(4-Methyl-piperazin-1-yl)-propoxy]-quinazolin-4-yl}-piperidine-1-carboxylic acid (4-morpholin-4-yl-phenyl)-amide] | > 20 µM | no significant adverse effects on body weight | No overt toxicity | regressed to non-palpable, non-detectable tumors | 0.04 µM | biologically significant reduction |  |  |  |  |  |  | 
 | O=C1CCCN1CCOc1ccc2c(C3CCN(C(=O)Nc4ccc(N5CCCC5)cc4)CC3)ncnc2c1 [Compound 74, 4-{7-[2-(2-Oxo-pyrrolidin-1-yl)-ethoxy]-quinazolin-4-yl}-piperidine-1-carboxylic acid (4-pyrrolidin-1-yl-phenyl)-amide] | 3.3 µM | no significant adverse effects on body weight | No overt toxicity |  | 0.013 µM | biologically significant reduction | 22% | 12% | 54% | 43% | 79% | 96% | 91%

— patent US8071768B2, “Alkylquinoline and alkylquinazoline kinase modulators” (Janssen Pharmaceutica, N.V., priority 2005, dated 2011)
